According to BindingDB's records for doi:10.1016/j.bmcl.2021.128008 (National Institute of Diabetes and Digestive and Kidney …, 2021):

Biological target: D(1B) dopamine receptor (Homo sapiens, UniProt P21918)
Assay: Inhibition of dopamine D5 receptor (unknown origin)

Sequence of D(1B) dopamine receptor (P21918 whole entry): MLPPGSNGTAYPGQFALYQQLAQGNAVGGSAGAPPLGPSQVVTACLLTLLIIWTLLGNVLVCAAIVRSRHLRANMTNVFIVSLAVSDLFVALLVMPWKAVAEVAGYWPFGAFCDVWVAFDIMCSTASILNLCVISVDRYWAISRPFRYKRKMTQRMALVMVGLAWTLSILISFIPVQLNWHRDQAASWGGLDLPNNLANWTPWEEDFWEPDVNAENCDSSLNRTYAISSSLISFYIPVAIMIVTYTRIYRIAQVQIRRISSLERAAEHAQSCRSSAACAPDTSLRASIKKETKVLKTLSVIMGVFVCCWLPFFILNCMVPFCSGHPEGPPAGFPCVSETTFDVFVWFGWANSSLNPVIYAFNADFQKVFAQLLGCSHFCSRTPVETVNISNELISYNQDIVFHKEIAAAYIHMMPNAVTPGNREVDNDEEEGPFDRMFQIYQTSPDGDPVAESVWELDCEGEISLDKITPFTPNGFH

CC(C)(C)C#Cc1ccc2c(c1)C=C([N+](=O)[O-])C(C(F)(F)F)O2 (stereo unspecified)
Ki: 2100 nM
